Assay results reported in ChEMBL document CHEMBL1201862, “PubChem BioAssay data set” (2004).
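Exposure lasted 48 hours, with cells grown in 96-well plates and compounds tested at five concentrations. GI50 is the concentration that inhibits growth by half.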 The source made the active and inactive calls. No stated cut-off is given here; in the data, active = GI50 up to about 1.1 µM and inactive = higher.

How the values were obtained:
Assay in all cases: inhibition of tumour cell growth, NCI panel, 48 h
[1] = tested on: BT-549
[2] = tested on: CCRF-CEM
[3] = tested on: DU-145
[4] = tested on: HCC 2998
[5] = tested on: HL-60
[6] = tested on: HOP-92
[7] = tested on: Hs-578T
[8] = tested on: MCF7
[9] = tested on: Malme-3M
[10] = tested on: NCI-H460
[11] = tested on: NCI-H522
[12] = tested on: OVCAR-5
[13] = tested on: RPMI-8226
[14] = tested on: RXF 393
[15] = tested on: SF-268
[16] = tested on: SN12C
[17] = tested on: TK-10
[18] = tested on: UACC-257

Compound	GI50 [1]	GI50 [2]	GI50 [3]	GI50 [4]	GI50 [5]	GI50 [6]	GI50 [7]	GI50 [8]	GI50 [9]	GI50 [10]	GI50 [11]	GI50 [12]	GI50 [13]	GI50 [14]	GI50 [15]	GI50 [16]	GI50 [17]	GI50 [18]
COc1ccc(/C=C2\CC3C4CC=C5C[C@@H](N6CCCC6)CC[C@]5(C)C4CC[C@]3(C)[C@H]2O)cc1OC (some centres undefined)	8.87 µM (inactive)	8.17 µM (inactive)	11.2 µM (inactive)	5.52 µM (inactive)	14.4 µM (inactive)	10.7 µM (inactive)	11 µM (inactive)	7.55 µM (inactive)	9.2 µM (inactive)	9.16 µM (inactive)	8.22 µM (inactive)	10.2 µM (inactive)	7.52 µM (inactive)	8.77 µM (inactive)	10.4 µM (inactive)	10.2 µM (inactive)	10.8 µM (inactive)	8.13 µM (inactive)
N#Cc1c(N)nc2c(/N=N\c3ccccc3)c(N)nn2c1Nc1ccccc1	23.9 µM (inactive)	4.37 µM (inactive)	18.2 µM (inactive)	4.41 µM (inactive)	2.52 µM (inactive)	14.6 µM (inactive)	1.06 µM (active)	1.51 µM (inactive)	21.6 µM (inactive)	10.1 µM (inactive)	17.8 µM (inactive)	26.7 µM (inactive)	3.56 µM (inactive)	13.1 µM (inactive)	26.7 µM (inactive)	7.69 µM (inactive)	22.3 µM (inactive)	18.7 µM (inactive)
Cc1ccc2[nH]/c(=N/S(=O)(=O)c3cc(C)c(Cl)cc3S)[nH]c2c1	> 100 µM (inactive)	21.4 µM (inactive)	> 100 µM (inactive)	> 100 µM (inactive)	28.8 µM (inactive)	> 100 µM (inactive)	88.3 µM (inactive)	64.1 µM (inactive)	> 100 µM (inactive)	16.4 µM (inactive)	> 100 µM (inactive)	> 100 µM (inactive)	40 µM (inactive)	> 100 µM (inactive)	39.8 µM (inactive)	> 100 µM (inactive)	> 100 µM (inactive)	> 100 µM (inactive)
Brc1ccc2[nH]cc(-c3nc(-c4c[nH]c5ccccc45)cs3)c2c1	7.52 µM (inactive)	3.79 µM (inactive)	3.45 µM (inactive)	2.3 µM (inactive)	3.37 µM (inactive)	2.54 µM (inactive)	5.86 µM (inactive)	2.8 µM (inactive)	3.17 µM (inactive)	2.06 µM (inactive)	1.91 µM (inactive)	1.95 µM (inactive)	3.18 µM (inactive)	5.48 µM (inactive)	3 µM (inactive)	3.49 µM (inactive)	3.56 µM (inactive)	3.97 µM (inactive)
COc1cc2ccc1OCc1cccc(n1)COc1ccc(cc1OC)/C=N\c1ccc(cc1)-c1ccc(cc1)/N=C\2	> 100 µM (inactive)	> 100 µM (inactive)	> 100 µM (inactive)	> 100 µM (inactive)	> 100 µM (inactive)	> 100 µM (inactive)	> 100 µM (inactive)	> 100 µM (inactive)	> 100 µM (inactive)	> 100 µM (inactive)	> 100 µM (inactive)	–	–	71.6 µM (inactive)	> 100 µM (inactive)	> 100 µM (inactive)	> 100 µM (inactive)	> 100 µM (inactive)
C=C1C(=O)O[C@H]2[C@H](OC(C)=O)[C@@H](C)CCC/C(C)=C/CC[C@@]3(C)O[C@@H]3C[C@@H]12	2.94 µM (inactive)	0.661 µM (active)	2.32 µM (inactive)	5.27 µM (inactive)	0.398 µM (active)	1.92 µM (inactive)	3.32 µM (inactive)	2.31 µM (inactive)	16 µM (inactive)	5.26 µM (inactive)	1.78 µM (inactive)	8.26 µM (inactive)	1.4 µM (inactive)	1.87 µM (inactive)	5.62 µM (inactive)	1.61 µM (inactive)	2.13 µM (inactive)	5.06 µM (inactive)
Cc1ccccc1-n1c(=O)nc2n(-c3ccc(C(C)(C)C)cc3)c3ccccc3cc-2c1=O	25.7 µM (inactive)	19.8 µM (inactive)	21.1 µM (inactive)	18.1 µM (inactive)	20.3 µM (inactive)	21.4 µM (inactive)	24.7 µM (inactive)	22.9 µM (inactive)	–	15.3 µM (inactive)	21.7 µM (inactive)	25.9 µM (inactive)	24.2 µM (inactive)	21.8 µM (inactive)	27.5 µM (inactive)	17.7 µM (inactive)	37.7 µM (inactive)	17.2 µM (inactive)
CCOC(=O)C(NC(=O)c1cccc(Cl)c1)(Nc1cccc(C)c1)C(F)(F)F (centres undefined)	13 µM (inactive)	11.6 µM (inactive)	29.3 µM (inactive)	16.7 µM (inactive)	38.5 µM (inactive)	15 µM (inactive)	14.8 µM (inactive)	19 µM (inactive)	16.6 µM (inactive)	20.8 µM (inactive)	5.26 µM (inactive)	–	18.3 µM (inactive)	13 µM (inactive)	15.3 µM (inactive)	21.2 µM (inactive)	29.8 µM (inactive)	25.7 µM (inactive)
O=C(CN1CCOCC1)CC(O)(C(F)(F)F)C(F)(F)F	> 100 µM (inactive)	56.4 µM (inactive)	> 100 µM (inactive)	67.3 µM (inactive)	61.7 µM (inactive)	29.6 µM (inactive)	35.6 µM (inactive)	> 100 µM (inactive)	> 100 µM (inactive)	–	42 µM (inactive)	> 100 µM (inactive)	55.2 µM (inactive)	20.1 µM (inactive)	–	–	> 100 µM (inactive)	> 100 µM (inactive)
CC(=O)Oc1c(C)c2c(O)c3c1C1=C(OCOC1=C(C)C3=O)/C(C)=C/C(C)(O)C(O)C(C)C(O)C1C(=O)OC(C(C)C1O)C(C)(O)/C=C\C=C(C)C(=O)N2 (centres undefined)	19.7 µM (inactive)	21.5 µM (inactive)	45.4 µM (inactive)	69.5 µM (inactive)	3.25 µM (inactive)	20.7 µM (inactive)	25.7 µM (inactive)	37.1 µM (inactive)	41.9 µM (inactive)	> 100 µM (inactive)	49.1 µM (inactive)	4.46 µM (inactive)	86.9 µM (inactive)	18.5 µM (inactive)	31.8 µM (inactive)	35 µM (inactive)	–	> 100 µM (inactive)
CC1C2CC(C/C2=N/O)C1(C)C (centres undefined)	> 100 µM (inactive)	> 100 µM (inactive)	> 100 µM (inactive)	> 100 µM (inactive)	> 100 µM (inactive)	> 100 µM (inactive)	> 100 µM (inactive)	> 100 µM (inactive)	> 100 µM (inactive)	> 100 µM (inactive)	> 100 µM (inactive)	> 100 µM (inactive)	–	> 100 µM (inactive)	> 100 µM (inactive)	> 100 µM (inactive)	> 100 µM (inactive)	> 100 µM (inactive)
